Results from PMC12246613, “Molecular basis of acyl-CoA ester recognition by α-methylacyl-CoA racemase from Mycobacterium tuberculosis” (The Journal of Biological Chemistry, 2025).
Where “and” joins values, the source holds several entries; their conditions need not be identical. Identical values can stand only once.

Tests used:
[1] = target: human AMACR 1A; details: cited from earlier work
[2] = target: T1, MCR (α-methylacyl-CoA racemase from Mycobacterium tuberculosis) (Mycobacterium tuberculosis, UniProt O06543); experiment: Jump-dilution experiment (reversibility of inhibition); format: biochemical; set-up: made in house; details: 12-min time-course, inhibitor at 6x or 0.06x the IC50
[3] = target: T1, MCR (α-methylacyl-CoA racemase from Mycobacterium tuberculosis); experiment: Kinetic assay (Ki and mode of inhibition, colorimetric assay); format: biochemical; set-up: made in house
Experimental: Data was collected as previously described using ibuprofenoyl-CoA 1 at 0, 3.2, 10, and 32 μM, 3.12 nM MCR, and 50.2 to 576 μM substrate (final concentrations) in 50 mM NaH2PO4-NaOH, 100 mM NaCl, and 1 mM EDTA, pH 7.4 and 3% (v/v) DMSO. Enzyme and inhibitor stock solutions were pre-incubated together for 10 min before initiating the assay. Rates were determined using ICEKAT ([46], [47]), with logarithmic fit of the data and correction of rates for delays between reaction initiation and first read. Data was analyzed using SigmaPlot 15.0 using Simple EK and the enzyme kinetics macro, with the correct inhibition model selected using graphs (Fig. S19, A–G) and statistical ranking of models. The determined Ki value is the mean ± SEM for three independent repeats.

[4] = target: T1, MCR (α-methylacyl-CoA racemase from Mycobacterium tuberculosis); experiment: Colorimetric inhibition assay, dose-response curves; details: for Max % (coefficient): fitted maximum % activity; for Min % (coefficient): fitted minimum % activity; for Hillslope (coefficient): 4-parameter logistic fit; for pIC50 lower than expected based on LogP: from plot of pIC50 vs. calculated LogP
[5] = system: MCR; set-up: method as in PMID 26759836; details: cited from earlier work
[6] = target: T1, MCR (α-methylacyl-CoA racemase from Mycobacterium tuberculosis); experiment: Deuterium-exchange assay (substrate α-proton exchange, 1H NMR); format: biochemical; set-up: made in house; details: 100 μM acyl-CoA, 2.34 nM MCR, ca. 85% 2H2O, 30 °C
Experimental: Exchange of substrate α-protons was assessed using the deuterium-exchange assay as previously described ([19], [32]). Assay mixtures contained 55 ng (2.34 nM) of active or heat-inactivated MCR, 100 μM acyl-CoA, 50 mM NaH2PO4-NaOH, pH 7.4 and ca. 85% (v/v) ^2H2O in a total volume of 600 μl. Fenoprofenoyl-CoA 2 was used as a positive control. Reactions were initiated by the addition of enzyme, and reaction mixtures were incubated at 30 °C for 1 h before quenching at 55 °C for 10 min. NMR data were collected on a Bruker Avance Neo operating at 500.13 MHz for proton at 25 °C. Solvent suppression was achieved using a pre-saturation experiment. Typically, 128 transients were recorded. Data were processed using Topspin 4.0.7. Analysis of deuterium-exchange is based upon changes in intensity of either the substrate methine protons in the α-position or by the effects of the loss of those α-proton on a coupled methyl group.

[7] = LogIC50 (coefficient), individual independent repeats 1-3, 4-parameter logistic fit of mean % activity (2 technical repeats)
[8] = individual independent repeats 1-3
[9] = pIC50, mean ± SEM, n = 3, colorimetric assay, 96 μM substrate, 3.12 nM MCR, 10 min pre-incubation

T1 sequence (O06543 whole entry): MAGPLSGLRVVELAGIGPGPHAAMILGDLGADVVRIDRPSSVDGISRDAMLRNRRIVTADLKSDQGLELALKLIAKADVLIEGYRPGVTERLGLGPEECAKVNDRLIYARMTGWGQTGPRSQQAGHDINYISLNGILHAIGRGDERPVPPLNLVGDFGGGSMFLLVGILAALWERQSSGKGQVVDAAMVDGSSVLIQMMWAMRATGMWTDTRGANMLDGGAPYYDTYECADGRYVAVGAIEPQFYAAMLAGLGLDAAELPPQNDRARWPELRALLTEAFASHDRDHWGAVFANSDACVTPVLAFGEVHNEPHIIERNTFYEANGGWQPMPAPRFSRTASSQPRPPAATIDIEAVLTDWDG

| Compound | IC50 [4, 7] | Max % (coefficient) [4, 8] | Min % (coefficient) [4, 8] | Hillslope (coefficient) [4, 8] | IC50 [4, 9] | further results |
| --- | --- | --- | --- | --- | --- | --- |
| CC(C)Cc1ccc(C(C)C(=O)SCCNC(=O)CCNC(=O)C(O)C(C)(C)COP(=O)(O)OP(=O)(O)OCC2OC(n3cnc4c(N)ncnc43)C(O)C2OP(=O)(O)O)cc1 (racemic) [compound 1, ±-Ibuprofenoyl-CoA] | 10.9 µM and 8.94 µM and 7.48 µM | 105.5482% and 98.8641% and 101.2444% | 2.6168% and 2.9187% and 2.6510% | -0.9604 and -0.9180 and -0.9734 | 8.91 µM | Ki ([1]; human AMACR 1A, mean ± SEM, n = 1): 0.06 ± 0.00478 µM; reversibility of inhibition [2]: reversible inhibition; Ki ([3]; individual repeats 1-3, inhibitor 0, 3.2, 10, 32 μM, 50.2 to 576 μM substrate): 3.06 µM and 2.44 µM and 3.62 µM; Ki ([3]; mean ± SEM, n = 3, competitive inhibition model): 3.04 ± 0.34 µM; mode of inhibition ([3]; Lineweaver-Burk plot and statistical ranking of models): competitive inhibition; potency on MCR relative to human AMACR (fold less potent) ([4]; MCR versus human AMACR): ~20 fold |
| CCCCCCCC(=O)SCCNC(=O)CCNC(=O)C(O)C(C)(C)COP(=O)(O)OP(=O)(O)OCC1OC(n2cnc3c(N)ncnc32)C(O)C1OP(=O)(O)O (centres unmarked) [compound 8, Octanoyl-CoA] | – | – | – | – | ~100 µM | – |
| CCCCCCCCCC(=O)SCCNC(=O)CCNC(=O)C(O)C(C)(C)COP(=O)(O)OP(=O)(O)OCC1OC(n2cnc3c(N)ncnc32)C(O)C1OP(=O)(O)O (centres unmarked) [compound 7, Decanoyl-CoA] | – | – | – | – | ~100 µM | – |
| CCCCCC(=O)SCCNC(=O)CCNC(=O)C(O)C(C)(C)COP(=O)(O)OP(=O)(O)OCC1OC(n2cnc3c(N)ncnc32)C(O)C1OP(=O)(O)O (centres unmarked) [compound 9, Hexanoyl-CoA] | – | – | – | – | ~316 µM | – |
| CC(C)(COP(=O)(O)OP(=O)(O)OC[C@H]1O[C@@H](n2cnc3c(N)ncnc32)[C@H](O)[C@@H]1OP(=O)(O)O)[C@@H](O)C(=O)NCCC(=O)NCCSC(=O)C(c1ccccc1)c1ccccc1 [diphenylacetyl-CoA] | – | – | – | – | – | α-proton exchange [5]: did not undergo α-proton exchange |
| CC(C(=O)SCCNC(=O)CCNC(=O)C(O)C(C)(C)COP(=O)(O)OP(=O)(O)OCC1OC(n2cnc3c(N)ncnc32)C(O)C1OP(=O)(O)O)c1cccc(C(=O)c2ccccc2)c1 (centres unmarked) [compound 3, S-Ketoprofenoyl-CoA] | 31.5 µM and 30.8 µM | 100.4116% and 96.3493% and 103.0106% | -9.0253% and -2.7332% and -8.7722% | -0.6349 and -0.7776 and -0.7146 | 31.6 µM | pIC50 lower than expected based on LogP [4]: approximately 0.3 |
| CC(C(=O)SCCNC(=O)CCNC(=O)C(O)C(C)(C)COP(=O)(O)OP(=O)(O)OCC1OC(n2cnc3c(N)ncnc32)C(O)C1OP(=O)(O)O)c1ccc(-c2ccccc2)c(F)c1 (racemic) [compound 4, ±-Flurbiprofenoyl-CoA] | 13.1 µM and 21.1 µM and 21.2 µM | 97.7981% and 95.9188% and 94.6575% | 1.7221% and 0.8368% and 2.1053% | -0.9708 and -1.0277 and -1.0055 | 18.2 µM | – |
| CCCCCCCCC(C)C(=O)SCCNC(=O)CCNC(=O)[C@H](O)C(C)(C)COP(=O)(O)OP(=O)(O)OC[C@H]1O[C@@H](n2cnc3c(N)ncnc32)[C@H](O)[C@@H]1OP(=O)(O)O (some centres unmarked) [compound 6, S-2-Methyldecanoyl-CoA] | 62.8 µM and 67.4 µM and 46.5 µM | 104.1285% and 101.8704% and 101.0137% | 10.2466% and 13.4630% and 9.4607% | -1.5837 and -2.4923 and -1.4587 | 58.9 µM | – |
| CC(=O)SCCNC(=O)CCNC(=O)C(O)C(C)(C)COP(=O)(O)OP(=O)(O)OCC1OC(n2cnc3c(N)ncnc32)C(O)C1OP(=O)(O)O (centres unmarked) [compound 11, Acetyl-CoA] | – | – | – | – | ~1000 µM | – |
| COc1ccc2cc(C(C)C(=O)SCCNC(=O)CCNC(=O)C(O)C(C)(C)COP(=O)(O)OP(=O)(O)OCC3OC(n4cnc5c(N)ncnc54)C(O)C3OP(=O)(O)O)ccc2c1 (centres unmarked) [compound 5, S-Naproxenoyl-CoA] | 19.5 µM and 15.6 µM and 15.5 µM | 99.5824% and 102.2413% and 102.0390% | -0.6400% and -0.5309% and -2.7274% | -0.7858 and -0.8072 and -0.6833 | 17 µM | pIC50 lower than expected based on LogP [4]: approximately 0.3 |
| CCCC(=O)SCCNC(=O)CCNC(=O)C(O)C(C)(C)COP(=O)(O)OP(=O)(O)OCC1OC(n2cnc3c(N)ncnc32)C(O)C1OP(=O)(O)O (centres unmarked) [compound 10, n-Butanoyl-CoA] | – | – | – | – | ~562 µM | – |
| CC(C(=O)SCCNC(=O)CCNC(=O)C(O)C(C)(C)COP(=O)(O)OP(=O)(O)OCC1OC(n2cnc3c(N)ncnc32)C(O)C1OP(=O)(O)O)c1cccc(Oc2ccccc2)c1 (racemic) [compound 2, ±-Fenoprofenoyl-CoA] | 20.4 µM and 11.7 µM and 14.2 µM | 99.3868% and 110.2399% and 93.4385% | -1.0173% and 2.2137% and -0.7388% | -0.8331 and -0.7292 and -0.8187 | 15.1 µM | relative inhibitor potency ([1]; human AMACR): most potent inhibitor |
| CC(C)C(=O)SCCNC(=O)CCNC(=O)C(O)C(C)(C)COP(=O)(O)OP(=O)(O)OCC1OC(n2cnc3c(N)ncnc32)C(O)C1OP(=O)(O)O (centres unmarked) [compound 12, Isobutanoyl-CoA] | – | – | – | – | ~1000 µM | α-proton exchange [6]: significant α-proton exchange |
